Laboratory results taken from patent US8906953B2, “Pyrrolidine substitute flavones for the treatment of inflammatory disorders” (Piramal Enterprises Limited, priority 2010, dated 2014).
pIC50: −log10 of the molar value.

How the values were obtained:
IL-8 = test: Spontaneous IL-8 release from synovial cells of RA patients; type: cell-based; settings: Homo sapiens, Synovial cell, freshly isolated synovial cells from RA patients, 16 hours
Procedure: Cytokine production in synovial cells obtained from rheumatoid arthritis patients undergoing knee replacement surgery, was measured as per the method described in reference, Lancet, 1989, 29, 244-247, the disclosure of which is incorporated herein by reference for the teaching of the assay. The synovial membrane tissue was digested by incubating at 37° C. for 3 hours in an atmosphere of 5% CO2, in Roswell Park Memorial Institute (RPMI) medium containing penicillin-G (100 U/mL), streptomycin (100 μg/mL), amphotericin B (50 ng/mL) (GIBCO), 1.33 mg/mL collagenase Type I (Worthington Biochemical Corporation, New Jersey, USA), 0.5 μg/mL DNAse Type I (SIGMA) and 8.33 U/mL heparin (Biological E. Limited, India). The digested tissue was then filtered through a membrane (mesh size 70 micron) (SIGMA), the cells were washed 3 times and suspended in complete medium (RPMI supplemented with 5% FCS and 5% human serum). The cell concentration was adjusted to 1×10^6 cells/mL. The viability as determined by trypan blue dye exclusion was uniform Ly≧98%. The cell suspension (100 μL) was added to the wells of a 96-well culture plate. Following cell plating, 100 μL of the culture medium and 1 μL of various concentrations of the compound of example 3 (final concentration 0.001, 0.003, 0.01, 0.03, 0.1, 0.3, 1 and 3 μM) dissolved in DMSO (dimethylsulfoxide, Sigma, Mo., USA) were added to the cells. […]

ICAM-1 = test: TNF-α induced cell surface expression of ICAM-1 on HUVECs; type: cell-based; settings: Homo sapiens, HUVEC; TNF-α (1 ng/mL) stimulated HUVECs, 4 hours, n=2
Procedure: The assay was designed as in reference, Transplantation, 1997, 63(5), 759-764, the disclosure of which is incorporated herein by reference for the teaching of the assay.
Human umbilical vein endothelial cells (HUVECs) were obtained from Cascade Biologics (Oregon-USA). Cells were cultured in M-200 medium (Cascade Biologics) supplemented with low serum growth supplements (LSGS) (Cascade Biologics), penicillin-G (100 U/mL), streptomycin (100 μg/mL) and amphotericin B (50 ng/mL) (GIBCO). […] After TNF-α stimulation (1 ng/mL) (R&D Systems (Minneapolis, Minn.)) for 4 hours at 37° C. in an atmosphere of 5% CO2, supernatants were harvested and assayed for the expression of ICAM-1 (intercellular cell adhesion molecules), whereas the expressions of VCAM-1 (vascular cell adhesion molecules) and E-selectin were evaluated after 6 hours of stimulation. […] To quantitatively measure the amount of cell surface expressions of ICAM-1, VCAM-1 and E-selectin, ELISA assay was performed using anti-ICAM-1 (clone BBIG-I1), anti-VCAM-1 (clone BBIG-V1), anti-E-selectin (clone BBIG-E4) antibodies, isotype control mouse IgG1 (clone 11711.11) and the secondary antibody (anti-mouse IgG-HRP antibody) which were procured from R&D Systems (Minneapolis, Minn., USA). […]

A pIC50 (IL-8) of 5.46 and a pIC50 (ICAM-1) of 6.17 were found for `CN1CC[C@@H](c2c(O)cc(O)c3c(=O)cc(-c4ccc(C(F)(F)F)cc4Cl)oc23)[C@@H]1CO.Cl` [Compound of example 3, (+)-trans-2-(2-Chloro-4-trifluoromethyl-phenyl)-5,7-dihydroxy-8-(2-hydroxymethyl-1-methyl-pyrrolidin-3-yl)-chromen-4-one hydrochloride] in this work.
